Experimental findings from patent EP2333100B1, “NAD(P)+-cofactor regeneration system und its use” (priority 2009, dated 2011) are described below.

What all share (format): biochemical
The target of test [1] is 12α-HSDH aus Clostridium sp. group P strain 48-50, Wildtypenzym (Clostridium sp., UniProt P21215). In words: Product inhibition of 12α-HSDH by 12-ketochenodeoxycholic acid. The settings on record: loss of activity at 5 % Umsatz; 100 % = activity at 0 % Umsatz (5mM CS); product concentration not given. From the text: "Poduktinhibition" der 12α-HSDH beschreibt die Verringerung der enzymatischen Aktivität in Gegenwart eines bei einer durch das Enzym katalysierten enzymatischen Umsetzung gebildeten Produkts. Bei Umsetzung zu CS ist so z.B. eine Inhibition durch 12-Keto-CDCS zu beobachten. Eine "Verringerung der Produktinhibition" beschreibt die verringerte prozentuale Abnahme der Enzymaktivität einer erfindungsgemäß eingesetzten Enzymmutante im Vergleich zu einem Referenzsystem, wie z.B. dem nativen HSDH-Enzym, jeweils bezogen auf die bei 0 % Umsatz (entsprechend 5mM CS) ermittelte Enzymaktivität als 100 %-Aktivitätswert. Diese Verringerung kann, wie im experimentellen Teil, bzw. in der Legende zu Figur 9 beschrieben, bestimmt werden. Verringerungen der Produktinhibition können auch über das Verhältnis der Restaktivitäten von Mutante zu Referenzenzym jeweils bestimmt bei gleichem prozentualen Umsatz, ausgedrückt werden. So kann die ererfindungsgemäß eingesetzte Mutante eine um den Faktor 1,1 bis 100, wie z.B. 1,5 bis 20 oder 2 bis 10 erhöhte Aktivität besitzen.
12α-HSDH aus Clostridium sp. group P strain 48-50, Wildtypenzym, sequence (P21215 whole entry): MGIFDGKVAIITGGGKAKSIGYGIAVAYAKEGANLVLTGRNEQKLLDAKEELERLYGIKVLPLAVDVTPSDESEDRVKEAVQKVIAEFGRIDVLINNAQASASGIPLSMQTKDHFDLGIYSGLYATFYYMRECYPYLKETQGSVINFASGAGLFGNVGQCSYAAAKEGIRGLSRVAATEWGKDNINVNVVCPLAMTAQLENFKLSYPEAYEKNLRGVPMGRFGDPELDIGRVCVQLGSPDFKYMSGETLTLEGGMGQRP
Die Aktivität wird wie folgt definiert: 1 U des Enzyms entspricht der Enzymmenge, welche die Umsetzung von 1 µmol/min einer 5 mM Cholsäurelösung in KaliumphosphatPuffer (50 mM, pH 8,0) bei Raumtemperatur (d.h. ca. 20 °C-23 °C) katalysiert. […]

In test [2] the test system is NADPH Dehydrogenase aus Bacillus stearothermophilus Sulfit Reduktase (EC 1.8.1.2), SEQ ID NO: 28. The experiment in a line: NADPH oxidation with riboflavin as electron acceptor, tolerance to cholic acid. The settings on record: activity with 0,1 M Cholsäure, 100% = ohne Cholsäure; 10 µM Riboflavin, 100 µM NADPH, 50 mM Tris-HCl (pH 8). As to the method:
(§1) Die NADPH-Oxidation unter Verwendung von Riboflavin als Elektronenakzeptor wurde in 1 ml Reaktionsmedium, enthaltend 2-50 µl Enzymlösung, 50 mM Tris-HCl (pH 8), 10 µM Riboflavin, 100 µM NADPH mit und ohne 0,1 M Cholsäure bestimmt. Die Oxidation von NADPH wurde über die Abnahme der Extinktion bei 340 nm spektrophotometrisch aufgezeichnet. Die Aktivitätseinheit (uM NADPH oxidiert/min) wurde mit Hilfes des millimolaren Extinktionscoeffizienten für NADPH von 6,22 mM^-1 cm^-1 bei 340 nm bestimmt.
(§2) Folgende Enzyme wurden getestet: NADPH Dehydrogenase aus Bacillus stearothermophilus Sulfit Reduktase, Flavin-Subunit von Sulfit-Reduktase aus E. coli und NAD(P)H-Flavin Reduktase aus E. coli. Die Ergebnisse sind in folgender Tabelle 3 zusammengefasst: TABELLE 3

The target in test [3] is T1, NADPH Dehydrogenase aus Sulfit-Reduktase (E. coli); Flavin-Subunit von Sulfit-Reduktase aus E. coli (Escherichia coli, UniProt P38038).
T1 construct: made in house; host or cells: E. coli (cell lysate)
T1 sequence (P38038 whole entry): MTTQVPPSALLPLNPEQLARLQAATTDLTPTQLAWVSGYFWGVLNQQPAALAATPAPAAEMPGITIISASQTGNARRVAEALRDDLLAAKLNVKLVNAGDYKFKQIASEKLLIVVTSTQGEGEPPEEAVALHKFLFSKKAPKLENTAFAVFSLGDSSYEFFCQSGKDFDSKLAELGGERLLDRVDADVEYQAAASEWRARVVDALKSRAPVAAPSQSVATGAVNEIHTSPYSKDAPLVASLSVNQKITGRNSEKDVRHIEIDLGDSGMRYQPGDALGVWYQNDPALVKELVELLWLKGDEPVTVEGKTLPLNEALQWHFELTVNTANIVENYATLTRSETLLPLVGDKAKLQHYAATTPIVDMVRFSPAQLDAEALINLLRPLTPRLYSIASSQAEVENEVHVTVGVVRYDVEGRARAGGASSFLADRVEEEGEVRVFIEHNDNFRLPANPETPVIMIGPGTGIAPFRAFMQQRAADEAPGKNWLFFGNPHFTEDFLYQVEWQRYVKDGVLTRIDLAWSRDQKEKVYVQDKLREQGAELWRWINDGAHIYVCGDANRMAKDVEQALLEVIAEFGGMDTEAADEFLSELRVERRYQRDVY
The test is described as above. Conditions: activity with 0,1 M Cholsäure, 100% = ohne Cholsäure; 10 µM Riboflavin, 100 µM NADPH, 50 mM Tris-HCl (pH 8). As to the method: as §1, §2

In test [4] the target is T2, NAD(P)H-Flavin Reduktase aus E. coli (EC 1.5.1.29 / 1.16.1.3), SEQ ID NO: 30 (Escherichia coli, UniProt P0AEN1).
T2 construct: made in house; host or cells: E. coli (cell lysate)
T2 sequence (P0AEN1 whole entry): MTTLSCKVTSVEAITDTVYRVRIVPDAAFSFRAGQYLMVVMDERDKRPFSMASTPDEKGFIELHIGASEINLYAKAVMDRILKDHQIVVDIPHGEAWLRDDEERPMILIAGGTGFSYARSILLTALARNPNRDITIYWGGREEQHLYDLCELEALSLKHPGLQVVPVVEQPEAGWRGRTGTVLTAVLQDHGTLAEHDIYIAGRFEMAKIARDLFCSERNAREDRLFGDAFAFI
Described as above. The settings on record: activity with 0,1 M Cholsäure, 100% = ohne Cholsäure; 10 µM Riboflavin, 100 µM NADPH, 50 mM Tris-HCl (pH 8); read-out: Mit 0, 1 M Cholsäure, U/ml E. coli Zell-Lysate (%). As to the method:
as §1, §2

Test [5] deals with T3, Flavodoxin Reduktase aus E. coli (EC 1.18.1.2), SEQ ID NO: 26 (Escherichia coli, UniProt P28861).
T3 construct: made in house; host or cells: E. coli
T3 sequence (P28861 whole entry): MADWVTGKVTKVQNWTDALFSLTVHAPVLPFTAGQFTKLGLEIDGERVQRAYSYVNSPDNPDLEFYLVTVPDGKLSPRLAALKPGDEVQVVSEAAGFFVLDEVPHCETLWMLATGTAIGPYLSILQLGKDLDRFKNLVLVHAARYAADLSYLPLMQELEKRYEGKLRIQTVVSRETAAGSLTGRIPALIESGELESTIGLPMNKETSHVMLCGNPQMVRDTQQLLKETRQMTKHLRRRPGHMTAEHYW
The experiment in a line: NADPH oxidation with DCIP as electron acceptor, tolerance to cholic acid. Conditions: remaining activity with 0,1 M Cholsäure, 100% = ohne Cholsäure; 75 µM DCIP, 100 µM NADPH, 50 mM Tris-HCl (pH 8); read-out: Mit 0, 1 M Cholsäure, U/mg Protein (%). As to the method: (§3) Die NADPH-Dehydrogenase Aktivität wurde unter Verwendung von Dichlorphenolindophenol (DCIP) als Substrat bestimmt. Die Reaktion wurde durch Zugabe von Enzym (2-50 µl) zu 1 ml Reaktionsgemisch, enthaltend 50 mM Tris-HCl (pH 8), 75 µM DCIP, 100 µM NADPH mit bzw. ohne 0,1 M Cholsäure gestartet. Die Reduktion von DCIP wurde durch Abnahme der Extinktion bei 600 nm spektrophotometrisch bestimmt. Die Aktivitätseinheit (µM DCIP reduziert/min) wurde mit Hilfe des Extinktions-Coeffizienten von DCIP von 20 mM^-1 cm^-1 bei 600 nm bestimmt.
(§4) Folgende Enzyme wurden getestet: Flavodoxin Reduktase aus E. coli, Reduktase Domäne der CYP102A1 aus Bacillus megaterium; Glutathion Reduktase aus Saccharomyces cerevisiae und Diaphorase aus Clostridium kluyveri. Die Ergebnisse sind in der folgenden Tabelle 2 zusammengestellt.

The test system of test [6] is Diaphorase aus Clostridium kluyveri. The test is described as above. Conditions: remaining activity with 0,1 M Cholsäure, 100% = ohne Cholsäure; 75 µM DCIP, 100 µM NADPH, 50 mM Tris-HCl (pH 8). As to the method: as §3, §4
The target in test [7] is Reduktase Domäne der CYP102A1 aus Bacillus megaterium (EC 1.6.2.4), SEQ ID NO: 24 (Priestia megaterium, UniProt P14779). The test is described as above. The settings on record: remaining activity with 0,1 M Cholsäure, 100% = ohne Cholsäure; 75 µM DCIP, 100 µM NADPH, 50 mM Tris-HCl (pH 8); read-out: Mit 0, 1 M Cholsäure, U/mg Protein (%). As to the method: as §3, §4
Reduktase Domäne der CYP102A1 aus Bacillus megaterium (EC 1.6.2.4), SEQ ID NO: 24, sequence (P14779 473-1049): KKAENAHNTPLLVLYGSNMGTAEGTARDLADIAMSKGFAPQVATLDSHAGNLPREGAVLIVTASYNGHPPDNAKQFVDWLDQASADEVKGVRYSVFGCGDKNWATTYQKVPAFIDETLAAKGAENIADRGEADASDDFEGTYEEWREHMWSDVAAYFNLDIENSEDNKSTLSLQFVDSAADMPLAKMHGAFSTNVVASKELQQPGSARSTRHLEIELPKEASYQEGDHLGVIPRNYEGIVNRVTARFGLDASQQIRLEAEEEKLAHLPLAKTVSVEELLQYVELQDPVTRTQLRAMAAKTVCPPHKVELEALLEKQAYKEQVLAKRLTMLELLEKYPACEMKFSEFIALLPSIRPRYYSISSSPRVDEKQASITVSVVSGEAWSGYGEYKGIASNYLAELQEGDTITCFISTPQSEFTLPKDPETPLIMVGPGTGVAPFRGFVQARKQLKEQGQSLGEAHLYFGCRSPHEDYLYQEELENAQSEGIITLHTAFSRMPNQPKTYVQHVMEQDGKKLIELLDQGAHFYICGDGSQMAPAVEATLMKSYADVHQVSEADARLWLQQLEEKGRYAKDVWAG
The target in test [8] is T4, Glutathion Reduktase aus Saccharomyces cerevisiae (Saccharomyces cerevisiae, UniProt P41921).
T4 construct: purchased Sigma
T4 sequence (P41921 1-467 isoform P41921-2): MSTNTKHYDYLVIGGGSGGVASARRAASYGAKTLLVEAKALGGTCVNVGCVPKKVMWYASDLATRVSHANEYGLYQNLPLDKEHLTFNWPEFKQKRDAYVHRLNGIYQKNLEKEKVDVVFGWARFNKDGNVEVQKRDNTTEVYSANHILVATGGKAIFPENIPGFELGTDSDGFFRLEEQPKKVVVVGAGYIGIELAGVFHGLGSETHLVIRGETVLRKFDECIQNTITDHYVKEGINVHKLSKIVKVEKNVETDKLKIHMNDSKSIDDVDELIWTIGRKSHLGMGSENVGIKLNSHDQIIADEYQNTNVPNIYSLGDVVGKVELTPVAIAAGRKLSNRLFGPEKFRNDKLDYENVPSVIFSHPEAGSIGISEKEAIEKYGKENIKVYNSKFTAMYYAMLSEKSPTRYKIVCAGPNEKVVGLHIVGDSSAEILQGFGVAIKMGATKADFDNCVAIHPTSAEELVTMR
The test is described as above. Conditions: remaining activity with 0,1 M Cholsäure, 100% = ohne Cholsäure; 75 µM DCIP, 100 µM NADPH, 50 mM Tris-HCl (pH 8); read-out: Mit 0, 1 M Cholsäure, U/mg Protein (%). As to the method:
as §3, §4

With `C[C@H](CCC(=O)O)[C@H]1CC[C@H]2[C@@H]3[C@H](O)C[C@@H]4C[C@H](O)CC[C@]4(C)[C@H]3CC(=O)[C@]12C` [12-Ketochenodesoxycholsäure], the “Verlust (Produktinhibierung durch 12-Ketochenodesoxycholsäure)” value in test [1] worked out at 60%.
On to `C[C@H](CCC(=O)O)[C@H]1CC[C@H]2[C@@H]3[C@H](O)C[C@@H]4C[C@H](O)CC[C@]4(C)[C@H]3C[C@H](O)[C@]12C` [Cholsäure], for which the “Mit 0, 1 M Cholsäure, U/ml E. coli Zell-Lysate (%)” value in test [2] is 22,1 (155 %); in test [3], 2,1 (6 %). The activity at 100000 µM in test [4] turned out to be 5%; in test [5], 93%; in test [7], 35%; in test [8], 15%. Also, the “Mit 0, 1 M Cholsäure, U/mg Protein (%)” value in test [6] is listed as 0,26 (3 %).
